The experiment addresses T1, APOL1 (Homo sapiens, UniProt O14791).
T1 sequence (O14791 1-398 S342G/I384M): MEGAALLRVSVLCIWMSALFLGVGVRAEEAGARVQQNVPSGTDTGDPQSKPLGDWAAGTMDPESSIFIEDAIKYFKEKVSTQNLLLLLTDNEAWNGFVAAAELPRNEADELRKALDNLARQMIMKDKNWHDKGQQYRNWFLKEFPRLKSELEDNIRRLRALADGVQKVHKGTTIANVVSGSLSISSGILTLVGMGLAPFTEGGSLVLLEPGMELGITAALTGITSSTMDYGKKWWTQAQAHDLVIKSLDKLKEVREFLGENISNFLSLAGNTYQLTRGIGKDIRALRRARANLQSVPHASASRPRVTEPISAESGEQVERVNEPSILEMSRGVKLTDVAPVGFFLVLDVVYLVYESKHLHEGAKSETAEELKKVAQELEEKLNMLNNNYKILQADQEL
As to the kind of experiment: Multi-Tox Assay (MultiTox-Fluor Multiplex Cytotoxicity Assay in tet-inducible APOL1 T-REx-HEK293 cells; Table 46 does not say which APOL1 variant G0/G1/G2). The note with it: APOL1 variant not given; for pIC50: IP50 = IC50 for cell proliferation. Format: cell-based.

These results are taken from patent US12421249B2, “Inhibitors of APOL1 and methods of using same” (Vertex Pharmaceuticals Incorporated, priority 2020, dated 2025).

One may read the pIC50 as −log10 of the IC50, conventionally taken in molar units. Broadly, the IC90 is the concentration at which the effect reaches the 90% level.

pIC50: −log10 of the molar value. Where only a bound is given, the exact number is not on record here.

In the case of `Cc1ccccc1C(O)Cn1cc([C@@H]2C[C@]3(C[C@H](C)N2)OC[C@@H](O)c2cc(Cl)sc23)nn1` (stereo partly shown) [Compound 261], the “Multi-Tox Assay Max Activity (%)” value was 100.0% and the pIC50 was 6.30 to 7.30.

For `C[C@H]1C[C@@]2(C[C@@H](c3cn(CCc4ccncn4)nn3)N1)OC[C@@H](O)c1cc(Cl)sc12` [Compound 262], the “Multi-Tox Assay Max Activity (%)” value is listed as 99.0% and the negative logarithm of the IC50 (pIC50) is 6.30 to 7.30.

The compound `COC(=O)Cn1cc([C@@H]2C[C@]3(C[C@H](C)N2)OC[C@@H](O)c2cc(Cl)sc23)nn1` [Compound 263] had a pIC50 of less than 6.30.

For `CC(CO)CCn1cc([C@@H]2C[C@]3(C[C@H](C)N2)OC[C@@H](O)c2cc(Cl)sc23)nn1` (stereo partly shown) [Compound 264], the “Multi-Tox Assay Max Activity (%)” value worked out at 100.0% and the negative-log IC50 (pIC50) was more than 7.30.

Turning to `C[C@H]1C[C@@]2(C[C@@H](c3cn(CC4CCS(=O)(=O)C4)nn3)N1)OC[C@@H](O)c1cc(Cl)sc12` (stereo partly shown) [Compound 265], the “Multi-Tox Assay Max Activity (%)” value is reported as 99.0% and the negative logarithm of the IC50 (pIC50) is 6.30 to 7.30.

As for `C[C@H]1C[C@@]2(C[C@@H](c3cn(Cc4ccc(OC5CCOCC5)cc4)nn3)N1)OC[C@@H](O)c1cc(Cl)sc12` [Compound 266], the “Multi-Tox Assay Max Activity (%)” value worked out at 100.0% and the pIC50 was more than 7.30.

For the compound `C[C@H]1C[C@@]2(C[C@@H](c3cn(CC4CCOCC4)nn3)N1)OC[C@@H](O)c1cc(Cl)sc12` [Compound 267], the “Multi-Tox Assay Max Activity (%)” value worked out at 99.0% and the negative logarithm of the IC50 (pIC50) is 6.30 to 7.30.

As to `C[C@H]1C[C@@]2(C[C@@H](c3cn(Cc4cccc5c4OCCO5)nn3)N1)OC[C@@H](O)c1cc(Cl)sc12` [Compound 268], the “Multi-Tox Assay Max Activity (%)” value is listed as 99.0% and the negative logarithm of the IC50 (pIC50) is 6.30 to 7.30.

Regarding `C[C@H]1C[C@@]2(C[C@@H](c3cn(CC4CCOC4)nn3)N1)OC[C@@H](O)c1cc(Cl)sc12` (stereo partly shown) [Compound 269], the “Multi-Tox Assay Max Activity (%)” value came out at 99.0% and the pIC50 is 6.30 to 7.30.

Take `COCC1(Cn2cc([C@@H]3C[C@]4(C[C@H](C)N3)OC[C@@H](O)c3cc(Cl)sc34)nn2)CC1` [Compound 270]: the “Multi-Tox Assay Max Activity (%)” value came to 93.0% and the negative logarithm of the IC50 (pIC50) is 6.30 to 7.30.

`C[C@H]1C[C@@]2(C[C@@H](c3cn(Cc4cccc(CO)c4)nn3)N1)OC[C@@H](O)c1cc(Cl)sc12` [Compound 271]: the “Multi-Tox Assay Max Activity (%)” value is on record as 97.0% and the pIC50 was more than 7.30.

On to `Cc1nnc(Cn2cc([C@@H]3C[C@]4(C[C@H](C)N3)OC[C@@H](O)c3cc(Cl)sc34)nn2)[nH]1` [Compound 272], for which the “Multi-Tox Assay Max Activity (%)” value came out at 95.0% and the negative logarithm of the IC50 (pIC50) is 6.30 to 7.30.

The compound `C[C@H]1C[C@@]2(C[C@@H](c3cn(CCC4CCCOC4)nn3)N1)OC[C@@H](O)c1cc(Cl)sc12` (stereo partly shown) [Compound 273] showed a pIC50 of more than 7.30.

Consider `Cc1ccnn1CCn1cc([C@@H]2C[C@]3(C[C@H](C)N2)OC[C@@H](O)c2cc(Cl)sc23)nn1` [Compound 274], for which the “Multi-Tox Assay Max Activity (%)” value is 97.0% and the pIC50 is 6.30 to 7.30.

For the compound `C[C@H]1C[C@@]2(C[C@@H](c3cn(Cc4ccc(O)nc4)nn3)N1)OC[C@@H](O)c1cc(Cl)sc12` [Compound 275], the “Multi-Tox Assay Max Activity (%)” value was found to be 94.0% and the pIC50 is 6.30 to 7.30.

For the compound `C[C@H]1C[C@@]2(C[C@@H](c3cn(Cc4cnccn4)nn3)N1)OC[C@@H](O)c1cc(Cl)sc12` [Compound 276], the “Multi-Tox Assay Max Activity (%)” value is reported as 100.0% and the pIC50 is 6.30 to 7.30.

With `Cc1ncc(Cn2cc([C@@H]3C[C@]4(C[C@H](C)N3)OC[C@@H](O)c3cc(Cl)sc34)nn2)cn1` [Compound 277], the “Multi-Tox Assay Max Activity (%)” value is 100.0% and the pIC50 is more than 7.30.

Consider `COc1cccc(Cn2cc([C@@H]3C[C@]4(C[C@H](C)N3)OC[C@@H](O)c3cc(Cl)sc34)nn2)c1` [Compound 278], for which the “Multi-Tox Assay Max Activity (%)” value came out at 100.0% and the pIC50 was more than 7.30.

`C[C@H]1C[C@@]2(C[C@@H](c3cn(Cc4cccc(O)c4)nn3)N1)OC[C@@H](O)c1cc(Cl)sc12` [Compound 279]: the “Multi-Tox Assay Max Activity (%)” value is given as 97.0% and the pIC50 was 6.30 to 7.30.

As to `C[C@H]1C[C@@]2(C[C@@H](c3cn(Cc4cccnn4)nn3)N1)OC[C@@H](O)c1cc(Cl)sc12` [Compound 280], the “Multi-Tox Assay Max Activity (%)” value is listed as 99.0% and the pIC50 was 6.30 to 7.30.

Regarding `C[C@H]1C[C@@]2(C[C@@H](c3cn(CC(O)c4ccccc4)nn3)N1)OC[C@@H](O)c1cc(Cl)sc12` (stereo partly shown) [Compound 281], the “Multi-Tox Assay Max Activity (%)” value turned out to be 99.0% and the pIC50 is 6.30 to 7.30.

`COCCn1cc([C@@H]2C[C@]3(C[C@H](C)N2)OC[C@@H](O)c2cc(Cl)sc23)nn1` [Compound 282]: the “Multi-Tox Assay Max Activity (%)” value is 99.0% and the pIC50 is more than 7.30.

As to `C[C@H]1C[C@@]2(C[C@@H](c3cn(CC(F)F)nn3)N1)OC[C@@H](O)c1cc(Cl)sc12` [Compound 283], the pIC50 was 6.30 to 7.30.

For the compound `CCC(O)Cn1cc([C@@H]2C[C@]3(C[C@H](C)N2)OC[C@@H](O)c2cc(Cl)sc23)nn1` (stereo partly shown) [Compound 284], the pIC50 is 6.30 to 7.30.

Turning to `Cc1c(Cn2cc([C@@H]3C[C@]4(C[C@H](C)N3)OC[C@@H](O)c3cc(Cl)sc34)nn2)cnn1C` [Compound 285], the “Multi-Tox Assay Max Activity (%)” value is given as 98.0% and the pIC50 is 6.30 to 7.30.

As for `C[C@H]1C[C@@]2(C[C@@H](c3cn(CCC#N)nn3)N1)OC[C@@H](O)c1cc(Cl)sc12` [Compound 286], the “Multi-Tox Assay Max Activity (%)” value is on record as 98.0% and the pIC50 was more than 7.30.

`CC(C)N1CC(Cn2cc([C@@H]3C[C@]4(C[C@H](C)N3)OC[C@@H](O)c3cc(Cl)sc34)nn2)CC1=O` (stereo partly shown) [Compound 287]: the “Multi-Tox Assay Max Activity (%)” value stood at 96.0% and the pIC50 is 6.30 to 7.30.

Consider `C[C@H]1C[C@@]2(C[C@@H](c3cn(CCC(N)=O)nn3)N1)OC[C@@H](O)c1cc(Cl)sc12` [Compound 288], for which the “Multi-Tox Assay Max Activity (%)” value is given as 97.0% and the pIC50 was 6.30 to 7.30.

With `C[C@H]1C[C@@]2(C[C@@H](c3cn(CC4(F)CCOCC4)nn3)N1)OC[C@@H](O)c1cc(Cl)sc12` [Compound 289], the pIC50 was less than 6.30.

For `CCn1cc(Cn2cc([C@@H]3C[C@]4(C[C@H](C)N3)OC[C@@H](O)c3cc(Cl)sc34)nn2)cn1` [Compound 290], the “Multi-Tox Assay Max Activity (%)” value came out at 99.0% and the negative-log IC50 (pIC50) was 6.30 to 7.30.

Regarding `C[C@H]1C[C@@]2(C[C@@H](c3cn(Cc4cocn4)nn3)N1)OC[C@@H](O)c1cc(Cl)sc12` [Compound 291], the “Multi-Tox Assay Max Activity (%)” value is given as 100.0% and the pIC50 was 6.30 to 7.30.

As to `C[C@H]1C[C@@]2(C[C@@H](c3cn(Cc4ccccn4)nn3)N1)OC[C@@H](O)c1cc(Cl)sc12` [Compound 292], the “Multi-Tox Assay Max Activity (%)” value is reported as 99.0% and the negative logarithm of the IC50 (pIC50) is 6.30 to 7.30.

Take `COc1cc(F)cc(Cn2cc([C@@H]3C[C@]4(C[C@H](C)N3)OC[C@@H](O)c3cc(Cl)sc34)nn2)c1` [Compound 293]: the “Multi-Tox Assay Max Activity (%)” value came to 100.0% and the pIC50 is more than 7.30.

`Cc1ccc(Cn2cc([C@@H]3C[C@]4(C[C@H](C)N3)OC[C@@H](O)c3cc(Cl)sc34)nn2)nc1` [Compound 294]: the “Multi-Tox Assay Max Activity (%)” value was 100.0% and the pIC50 was 6.30 to 7.30.

Consider `COc1ccc(Cn2cc([C@@H]3C[C@]4(C[C@H](C)N3)OC[C@@H](O)c3cc(Cl)sc34)nn2)cc1` [Compound 295], for which the “Multi-Tox Assay Max Activity (%)” value is reported as 99.0% and the pIC50 is more than 7.30.

Turning to `Cc1cc(Cn2cc([C@@H]3C[C@]4(C[C@H](C)N3)OC[C@@H](O)c3cc(Cl)sc34)nn2)ccn1` [Compound 296], the “Multi-Tox Assay Max Activity (%)” value was 99.0% and the negative logarithm of the IC50 (pIC50) is 6.30 to 7.30.

For `Cc1nc(Cn2cc([C@@H]3C[C@]4(C[C@H](C)N3)OC[C@@H](O)c3cc(Cl)sc34)nn2)oc1C` [Compound 297], the “Multi-Tox Assay Max Activity (%)” value came to 99.0% and the pIC50 is more than 7.30.

`C[C@H]1C[C@@]2(C[C@@H](c3cn(Cc4ncc(F)cc4F)nn3)N1)OC[C@@H](O)c1cc(Cl)sc12` [Compound 298]: the “Multi-Tox Assay Max Activity (%)” value was determined as 95.0% and the negative logarithm of the IC50 (pIC50) is 6.30 to 7.30.

In the case of `C[C@@H](CO)CCn1cc([C@@H]2C[C@]3(C[C@H](C)N2)OC[C@@H](O)c2cc(Cl)sc23)nn1` [Compound 299], the IC90 lay within 50 to 500 nM, the “Multi-Tox Assay Max Activity (%)” value is 99.0% and the pIC50 is more than 7.30.

As for `C[C@H]1C[C@@]2(C[C@@H](c3cn(C[C@H](O)CO)nn3)N1)OC[C@@H](O)c1cc(Cl)sc12` [Compound 300], the IC90 fell in the range of 50 to 500 nM, the “Multi-Tox Assay Max Activity (%)” value was 100.0% and the negative-log IC50 (pIC50) was 6.30 to 7.30.

Turning to `C[C@H]1C[C@@]2(C[C@@H](c3cn(CCOc4ccccc4F)nn3)N1)OC[C@@H](O)c1cc(Cl)sc12` [Compound 301], the “Multi-Tox Assay Max Activity (%)” value came to 99.0% and the negative-log IC50 (pIC50) is more than 7.30.

On to `C[C@H]1C[C@@]2(C[C@@H](c3cn(Cc4ccc(O)cc4)nn3)N1)OCC(F)(F)c1cc(Cl)sc12` [Compound 302], for which the “Multi-Tox Assay Max Activity (%)” value came to 94.0% and the negative logarithm of the IC50 (pIC50) is 6.30 to 7.30.

Consider `Cc1cccc(OCC(O)Cn2cc([C@@H]3C[C@]4(C[C@H](C)N3)OCC(F)(F)c3cc(Cl)sc34)nn2)c1` (stereo partly shown) [Compound 303], for which the “Multi-Tox Assay Max Activity (%)” value worked out at 99.0% and the pIC50 was 6.30 to 7.30.

Consider `Cc1ccccc1C(O)Cn1cc([C@@H]2C[C@]3(C[C@H](C)N2)OCC(F)(F)c2cc(Cl)sc23)nn1` (stereo partly shown) [Compound 304], for which the “Multi-Tox Assay Max Activity (%)” value turned out to be 99.0% and the pIC50 was 6.30 to 7.30.
